Experimental data: ChEMBL document CHEMBL1141017, “Triterpene based compounds with potent anti-maturation activity against HIV-1” (Bioorg Med Chem Lett, 2008)

Columns and labels:
[1] = Cytotoxicity against human MT4 cells after 4 days by cell viability assay; type: cell-based; conditions: read-out: TC50
[2] = tested on: Human immunodeficiency virus 1; assay: Antiviral activity against HIV1 NL4-3 infected in human MT4 cells assessed as cytoprotection against virus-induced cytopathic effect after 4 days by cell viability assay; type: functional, organism-based; conditions: Human immunodeficiency virus 1, NL4-3, MT4, 96 h
[3] = Therapeutic index, ratio of TC50 for human MT4 cells to IC50 for HIV1 3B; type: cell-based
[4] = Therapeutic index, ratio of TC50 for human MT4 cells to EC50 for HIV1 NL43; type: cell-based
[5] = tested on: Human immunodeficiency virus 1; assay: Antiviral activity against HIV1 3B replication in human PBMC assessed as reverse transcriptase activity after 7 days; type: functional, organism-based; conditions: Human immunodeficiency virus 1, 3B, 168 h
[6] = Cytotoxicity against human PBMC by cell viability assay; type: cell-based; conditions: read-out: TC50 (the source's name)
[7] = Metabolic stability in human liver microsomes assessed as compound remaining after 40 mins; type: ADME, Microsome; conditions: read-out: Stability
[8] = Metabolic stability in Sprague-Dawley rat liver microsomes assessed as compound remaining after 40 mins; type: ADME, Microsome; conditions: read-out: Stability

Structure (SMILES) | CC50 at 96 h [1] | EC50 [2] | selectivity ratio [3] | selectivity ratio [4] | IC50 [5] | CC50 [6] | remaining at 40 min [7] | remaining at 40 min [8]
C=C(C)[C@@H]1CC[C@]2(C(=O)NCc3ccccc3C(=O)NCCNC(C)=O)CC[C@]3(C)[C@H](CC[C@@H]4[C@@]5(C)CC[C@H](OC(=O)CC(C)(C)C(=O)O)C(C)(C)[C@@H]5CC[C@]43C)[C@@H]12 | 9300 nM | 5 nM | > 400 | > 400 |  |  |  | 
C=C(C)[C@@H]1CC[C@]2(C(=O)NCc3nc4ccccc4s3)CC[C@]3(C)[C@H](CC[C@@H]4[C@@]5(C)CC[C@H](OC(=O)CC(C)(C)C(=O)O)C(C)(C)[C@@H]5CC[C@]43C)[C@@H]12 | 6800 nM | 33 nM |  |  | 3 nM | > 10000 nM |  | 
C=C(C)[C@@H]1CC[C@]2(C(=O)NCc3ccc(C(=O)NCCNC(C)=O)cc3)CC[C@]3(C)[C@H](CC[C@@H]4[C@@]5(C)CC[C@H](OC(=O)CC(C)(C)C(=O)O)C(C)(C)[C@@H]5CC[C@]43C)[C@@H]12 | 10000 nM | 30 nM | > 400 | > 400 |  |  |  | 
C=C(C)[C@@H]1CC[C@]2(C(=O)NCc3cccnc3C(=O)O)CC[C@]3(C)[C@H](CC[C@@H]4[C@@]5(C)CC[C@H](OC(=O)CC(C)(C)C(=O)O)C(C)(C)[C@@H]5CC[C@]43C)[C@@H]12 | > 10000 nM | 24 nM |  |  | 30 nM | > 10000 nM |  | 
C=C(C)[C@@H]1CC[C@]2(C(=O)NCc3ccc4c(c3)OCO4)CC[C@]3(C)[C@H](CC[C@@H]4[C@@]5(C)CC[C@H](OC(=O)CC(C)(C)C(=O)O)C(C)(C)[C@@H]5CC[C@]43C)[C@@H]12 | > 10000 nM | 23 nM | > 400 | > 400 | 9 nM | > 10000 nM | 10% | 10%
C=C(C)[C@@H]1CC[C@]2(C(=O)NCc3nc4ccccc4[nH]3)CC[C@]3(C)[C@H](CC[C@@H]4[C@@]5(C)CC[C@H](OC(=O)CC(C)(C)C(=O)O)C(C)(C)[C@@H]5CC[C@]43C)[C@@H]12 | 8600 nM | 5 nM |  |  | 1 nM | > 10000 nM |  | 
C=C(C)[C@@H]1CC[C@]2(C(=O)NCCCc3ccc(OC)c(OC)c3)CC[C@]3(C)[C@H](CC[C@@H]4[C@@]5(C)CC[C@H](OC(=O)CC(C)(C)C(=O)O)C(C)(C)[C@@H]5CC[C@]43C)[C@@H]12 | 10000 nM | 20 nM |  |  |  |  |  | 
C=C(C)[C@@H]1CC[C@]2(C(=O)NCc3ccc(C(=O)O)cn3)CC[C@]3(C)[C@H](CC[C@@H]4[C@@]5(C)CC[C@H](OC(=O)CC(C)(C)C(=O)O)C(C)(C)[C@@H]5CC[C@]43C)[C@@H]12 | > 10000 nM | 1700 nM |  |  |  |  |  | 
C=C(C)[C@@H]1CC[C@]2(C(=O)NCc3ccoc3)CC[C@]3(C)[C@H](CC[C@@H]4[C@@]5(C)CC[C@H](OC(=O)CC(C)(C)C(=O)O)C(C)(C)[C@@H]5CC[C@]43C)[C@@H]12 | > 10000 nM | 7 nM |  |  | 7 nM | > 10000 nM |  | 
C=C(C)[C@@H]1CC[C@]2(C(=O)NCc3cccc(C(=O)NCCNC(C)=O)c3)CC[C@]3(C)[C@H](CC[C@@H]4[C@@]5(C)CC[C@H](OC(=O)CC(C)(C)C(=O)O)C(C)(C)[C@@H]5CC[C@]43C)[C@@H]12 | 10000 nM | 10 nM | > 400 | > 400 |  |  |  | 10%
C=C(C)[C@@H]1CC[C@]2(C(=O)NCCc3ccc(C(=O)O)cc3)CC[C@]3(C)[C@H](CC[C@@H]4[C@@]5(C)CC[C@H](OC(=O)CC(C)(C)C(=O)O)C(C)(C)[C@@H]5CC[C@]43C)[C@@H]12 | 1000 nM | 1000 nM |  |  |  |  |  | 
C=C(C)[C@@H]1CC[C@]2(C(=O)NCCc3cccc(OC)c3)CC[C@]3(C)[C@H](CC[C@@H]4[C@@]5(C)CC[C@H](OC(=O)CC(C)(C)C(=O)O)C(C)(C)[C@@H]5CC[C@]43C)[C@@H]12 | > 10000 nM | 40 nM |  |  |  |  |  | 
C=C(C)[C@@H]1CC[C@]2(C(=O)NCc3ccccc3C)CC[C@]3(C)[C@H](CC[C@@H]4[C@@]5(C)CC[C@H](OC(=O)CC(C)(C)C(=O)O)C(C)(C)[C@@H]5CC[C@]43C)[C@@H]12 | > 10000 nM | 85 nM | > 400 | > 400 |  |  | 10% | 
C=C(C)[C@@H]1CC[C@]2(C(=O)NCc3ccccc3)CC[C@]3(C)[C@H](CC[C@@H]4[C@@]5(C)CC[C@H](OC(=O)CC(C)(C)C(=O)O)C(C)(C)[C@@H]5CC[C@]43C)[C@@H]12 | > 10000 nM | 23 nM | > 400 | > 400 | 11 nM | > 10000 nM |  | 10%
C=C(C)[C@@H]1CC[C@]2(C(=O)NCc3ccc(C(=O)O)cc3)CC[C@]3(C)[C@H](CC[C@@H]4[C@@]5(C)CC[C@H](OC(=O)CC(C)(C)C(=O)O)C(C)(C)[C@@H]5CC[C@]43C)[C@@H]12 | 8900 nM | 165 nM | > 400 | > 400 |  |  | 10% | 10%
C=C(C)[C@@H]1CC[C@]2(C(=O)N3Cc4ccccc4C3)CC[C@]3(C)[C@H](CC[C@@H]4[C@@]5(C)CC[C@H](OC(=O)CC(C)(C)C(=O)O)C(C)(C)[C@@H]5CC[C@]43C)[C@@H]12 | > 10000 nM | 70 nM |  |  |  |  |  | 
C=C(C)[C@@H]1CC[C@]2(C(=O)NCc3ccc4ccccc4n3)CC[C@]3(C)[C@H](CC[C@@H]4[C@@]5(C)CC[C@H](OC(=O)CC(C)(C)C(=O)O)C(C)(C)[C@@H]5CC[C@]43C)[C@@H]12 | > 10000 nM | 26 nM |  |  |  |  |  | 
C=C(C)[C@@H]1CC[C@]2(C(=O)NCc3ccc4cccc(O)c4n3)CC[C@]3(C)[C@H](CC[C@@H]4[C@@]5(C)CC[C@H](OC(=O)CC(C)(C)C(=O)O)C(C)(C)[C@@H]5CC[C@]43C)[C@@H]12 | > 10000 nM | 3 nM |  |  | 4 nM | > 10000 nM | > 40% | > 40%
C=C(C)[C@@H]1CC[C@]2(C(=O)N[C@@H](Cc3ccc(OC)cc3)C(=O)O)CC[C@]3(C)[C@H](CC[C@@H]4[C@@]5(C)CC[C@H](OC(=O)CC(C)(C)C(=O)O)C(C)(C)[C@@H]5CC[C@]43C)[C@@H]12 | 5600 nM | 9 nM |  |  |  |  |  | 
C=C(C)[C@@H]1CC[C@]2(C(=O)NCc3ncccc3C(=O)O)CC[C@]3(C)[C@H](CC[C@@H]4[C@@]5(C)CC[C@H](OC(=O)CC(C)(C)C(=O)O)C(C)(C)[C@@H]5CC[C@]43C)[C@@H]12 | > 10000 nM | 129 nM |  |  |  |  |  | 
C=C(C)[C@@H]1CC[C@]2(C(=O)NCc3cccc(C(=O)O)c3)CC[C@]3(C)[C@H](CC[C@@H]4[C@@]5(C)CC[C@H](OC(=O)CC(C)(C)C(=O)O)C(C)(C)[C@@H]5CC[C@]43C)[C@@H]12 | 7600 nM | 480 nM | > 400 | > 400 |  |  | 10% | 10%
C=C(C)[C@@H]1CC[C@]2(C(=O)NCc3ccccc3-c3ccccc3)CC[C@]3(C)[C@H](CC[C@@H]4[C@@]5(C)CC[C@H](OC(=O)CC(C)(C)C(=O)O)C(C)(C)[C@@H]5CC[C@]43C)[C@@H]12 | > 10000 nM | 290 nM | > 400 | > 400 |  |  |  | 
C=C(C)[C@@H]1CC[C@]2(C(=O)NCc3ccc(N(C)C)cc3)CC[C@]3(C)[C@H](CC[C@@H]4[C@@]5(C)CC[C@H](OC(=O)CC(C)(C)C(=O)O)C(C)(C)[C@@H]5CC[C@]43C)[C@@H]12 | 1000 nM | 30 nM | > 400 | > 400 |  |  | 10% | 10%
C=C(C)[C@@H]1CC[C@]2(C(=O)NCCCc3ccc(OC)cc3)CC[C@]3(C)[C@H](CC[C@@H]4[C@@]5(C)CC[C@H](OC(=O)CC(C)(C)C(=O)O)C(C)(C)[C@@H]5CC[C@]43C)[C@@H]12 | 10000 nM | 80 nM |  |  |  |  |  | 
C=C(C)[C@@H]1CC[C@]2(C(=O)N[C@H](C(=O)O)c3ccc(OC)cc3)CC[C@]3(C)[C@H](CC[C@@H]4[C@@]5(C)CC[C@H](OC(=O)CC(C)(C)C(=O)O)C(C)(C)[C@@H]5CC[C@]43C)[C@@H]12 | 6800 nM | 40 nM |  |  |  |  |  | 
C=C(C)[C@@H]1CC[C@]2(C(=O)N[C@H]3CCc4ccccc43)CC[C@]3(C)[C@H](CC[C@@H]4[C@@]5(C)CC[C@H](OC(=O)CC(C)(C)C(=O)O)C(C)(C)[C@@H]5CC[C@]43C)[C@@H]12 | > 10000 nM | 200 nM |  |  |  |  |  | 
C=C(C)[C@@H]1CC[C@]2(C(=O)N[C@H]3CCCc4ccccc43)CC[C@]3(C)[C@H](CC[C@@H]4[C@@]5(C)CC[C@H](OC(=O)CC(C)(C)C(=O)O)C(C)(C)[C@@H]5CC[C@]43C)[C@@H]12 | > 10000 nM | 180 nM |  |  |  |  |  | 
C=C(C)[C@@H]1CC[C@]2(C(=O)NCc3ccc(-c4ccccc4)cc3)CC[C@]3(C)[C@H](CC[C@@H]4[C@@]5(C)CC[C@H](OC(=O)CC(C)(C)C(=O)O)C(C)(C)[C@@H]5CC[C@]43C)[C@@H]12 | > 10000 nM | 267 nM | > 400 | > 400 |  |  | 10% | 
